Assay results published in patent US20210369816A1, “FORMULATIONS OF ABALOPARATIDE, TRANSDERMAL PATCHES THEREOF, AND USES THEREOF” (priority 2016, published 2021).

Experiments:
rat femur fracture model = assay: Rat femur fracture model (fracture healing); type: in vivo
Text: Certain embodiments of the methods disclosed herein also include the use of the microprojection arrays as described herein in their various embodiments to accelerate fracture healing in a patient who has suffered one or more fractures and for which the fractures are not completely healed. Healing of bone fractures (eg long bone fractures) involves endochondral and intramembranous bone formation, which together form a callus that achieves union, stabilization, and gradual recovery of bone strength. […] Sixteen rats from each group were necropsied after 4 and 6 weeks of healing, with 12 fractured femurs per group used for micro-CT and biomechanical testing and the other 4 femurs used for micro-CT and histology.

treated subjects = conditions: subcutaneous administration; cited from earlier work
[1] = tested on: ovariectomy-induced osteopenic rats and monkeys; conditions: ovariectomy-induced osteopenic rats and monkeys (Doyle 2013a; Doyle 2013b; Hattersley 2013); cited from earlier work
[2] = 25 ug/kg/d sc daily, week 4, P<0.05 vs VEH

[Glu^22,25, Leu^23,28,31, Aib^29, Lys^26,30]hPTHrP(1-34)NH2 [abaloparatide]
callus stiffness, higher vs VEH (three-point bending) (rat femur fracture model; 5 ug/kg/d sc daily, week 4, P<0.05 vs VEH): 60% | callus stiffness, higher vs VEH (three-point bending) (rat femur fracture model; 5 ug/kg/d sc daily, week 6, P<0.05 vs VEH): 112% | callus peak load, higher vs VEH (rat femur fracture model; [2]): 77% | callus stiffness, higher vs VEH (three-point bending) (rat femur fracture model; [2]): 96% | callus area (histomorphometry) vs VEH (rat femur fracture model; 5 and 25 ug/kg/d, week 4): significantly greater callus area | micro-CT of fracture calluses vs VEH (rat femur fracture model; 5 and 25 ug/kg/d, weeks 4 and 6): significantly greater callus bone volume, bone volume fraction, and BMC | histologic scoring of cortical bridging across the fracture gap vs VEH (rat femur fracture model; 5 or 25 ug/kg/d, week 4): significantly greater bridging | callus peak load vs VEH (rat femur fracture model; both abaloparatide groups (5 and 25 ug/kg/d), week 6): numerically higher | bone mineral density (BMD) and/or trabecular bone score (TBS) at the lumbar spine, total hip, and femoral neck (treated subjects): improve | bone loss [1]: complete reversal of bone loss
